Experimental data from US7183061B2, “Method of expressing Heliothis ecdysone receptor fusion protein” (Syngenta Limited, priority 1996, dated 2007).

Columns and labels:
[1] = molecular target: chimeric glucocorticoid VP16/Heliothis ecdysone receptor (UniProt O18473+P04150, DEL153-392/E478D/INS403[…]/INS405[…]/M398P/P396A/P400T/P406S/R399P/S397A/Y393A); assay: Maize protoplast GUS reporter assay with pMF6GRVP16HEcR and p221.9GRE6; assay type: cell-based, Heliothis virescens; parameters: expressed in transfected cells; host or cells: maize protoplasts (A10); stably transformed tobacco plants, pES3/pES4 (A11)
Chain of chimeric glucocorticoid VP16/Heliothis ecdysone receptor (P04150+O18473 fused with the stated changes): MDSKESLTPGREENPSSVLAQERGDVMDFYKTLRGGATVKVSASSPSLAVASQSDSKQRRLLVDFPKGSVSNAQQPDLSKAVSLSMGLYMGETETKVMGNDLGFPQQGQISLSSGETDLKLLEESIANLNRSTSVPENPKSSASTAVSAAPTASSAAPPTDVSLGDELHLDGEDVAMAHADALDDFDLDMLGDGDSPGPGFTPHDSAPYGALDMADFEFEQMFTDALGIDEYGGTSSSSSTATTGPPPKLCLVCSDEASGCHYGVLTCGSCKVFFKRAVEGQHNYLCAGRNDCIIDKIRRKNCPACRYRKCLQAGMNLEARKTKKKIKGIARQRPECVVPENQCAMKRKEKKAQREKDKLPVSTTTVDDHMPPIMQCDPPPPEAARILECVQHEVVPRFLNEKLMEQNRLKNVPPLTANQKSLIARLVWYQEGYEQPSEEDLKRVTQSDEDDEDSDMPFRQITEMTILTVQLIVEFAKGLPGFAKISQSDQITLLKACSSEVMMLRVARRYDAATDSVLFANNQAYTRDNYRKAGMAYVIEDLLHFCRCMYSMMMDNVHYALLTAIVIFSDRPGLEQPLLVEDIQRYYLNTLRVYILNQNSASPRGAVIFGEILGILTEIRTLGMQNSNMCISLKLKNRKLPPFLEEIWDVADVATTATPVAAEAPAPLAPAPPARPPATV
Protocol: Protoplasts were isolated from a maize suspension culture derived from BE70×A188 embryogenic callus material, which was maintained by subculturing twice weekly in MS0.5mod. (MS medium supplemented with 3% sucrose, 690 mg/l proline, 1 g/l myo-inositol, 0.2 g/l casein acid hydrolysate, 0.5 mg/l 2,4-D, pH 5.6). Cells from suspensions two days post subculture were digested in enzyme mixture (2.0% Cellulase RS, 0.2% Pectolyase Y23, 0.5 M Mannitol, 5 mM CaCl2.2H2O, 0.5% MES, pH 5.6, ˜660 mmol/kg) using ˜10 ml/g cells, incubating at 25° C., dim light, rotating gently for ˜2 hours. The digestion mixture was sieved sequentially through 250 μm and 38 μm sieves, and the filtrate centrifuged at 700 rpm for 3.5 minutes, discarding the supernatant. The protoplasts were resuspended in wash buffer (0.358 M KCl, 1.0 mM NH4NO3, 5.0 mM CaCl2.2H2O, 0.5 mM KH2PO4, pH 4.8, ˜670 mmol/kg) and pelleted as before. This washing step was repeated. The pellet was resuspended in wash buffer and the protoplasts were counted. Transformation was achieved using a Polyethylene glycol method based on Negrutiu et al. Protoplasts were resuspended at 2×10^6/ml in MaMg medium (0.4 M Mannitol, 15 mM MgCl2, 0.1% MES, pH 5.6, ˜450 mmol/kg) aliquotting 0.5 ml/treatment (i.e. 1×10^6 protoplasts/treatment). […] Protein concentrations of tissue homogenates were determined by the Bio-Rad protein assay (Bradford, 1976). […]

[2] = system: glucocorticoid receptor transactivating and DNA binding domains fused to the ecdysone receptor hinge and ligand binding domains; details: mammalian cells; cited from earlier work

SMILES	GUS levels relative to positive control (p35SCaMVGUS) ([1]; maize protoplasts (FIG. 39))	levels of expression relative to pMF6GRHEcR ([1]; maize protoplasts, 100 μM)	activity of chimeric receptor as homodimer [2]
CCc1ccc(C(=O)NN(C(=O)c2cc(C)cc(C)c2)C(C)(C)C)cc1 [RH5992, 3,5-dimethylbenzoic acid 1-1(1,1-dimethylethyl)-2(4-ethylbenzoyl)hydrazide]	comparable to those observed with the positive control	enhanced levels of expression	–
CC(C)CC[C@@H](O)[C@](C)(O)[C@H]1CC[C@@]2(O)C3=CC(=O)[C@]4(O)C[C@@H](O)[C@@H](O)C[C@]4(C)[C@H]3[C@H](O)C[C@]12C [Muristerone A]	–	–	active
